Measured values taken from patent US20140142185A1, “3-Benzyloxyphenyloxoacetic Acid Compounds for Reducing Uric Acid” (priority 2011, published 2014).

Biological target: T1, Human URAT1 (Homo sapiens, UniProt Q96S37)
T1 construct: The full-length hURAT1 cDNA was obtained from the vector pCMV6-XL5 and subcloned into the expression vector pCMV6-Neo
T1 sequence (Q96S37 1-553): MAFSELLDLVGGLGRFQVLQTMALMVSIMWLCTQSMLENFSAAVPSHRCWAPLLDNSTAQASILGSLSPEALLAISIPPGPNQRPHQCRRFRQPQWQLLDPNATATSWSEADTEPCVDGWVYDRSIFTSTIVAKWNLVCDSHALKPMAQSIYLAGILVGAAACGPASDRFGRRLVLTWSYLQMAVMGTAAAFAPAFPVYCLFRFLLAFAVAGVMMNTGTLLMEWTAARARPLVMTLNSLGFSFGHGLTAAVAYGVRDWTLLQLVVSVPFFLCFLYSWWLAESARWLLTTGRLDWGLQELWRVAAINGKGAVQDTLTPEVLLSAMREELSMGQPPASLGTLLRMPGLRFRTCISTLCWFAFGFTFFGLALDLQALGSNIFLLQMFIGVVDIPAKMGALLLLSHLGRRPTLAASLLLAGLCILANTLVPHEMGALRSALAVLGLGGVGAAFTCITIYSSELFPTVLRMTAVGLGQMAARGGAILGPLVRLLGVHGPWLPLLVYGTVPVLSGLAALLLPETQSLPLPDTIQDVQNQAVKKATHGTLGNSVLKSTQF
Experiment: URAT1 inhibition assay: [8-14C] urate uptake in hURAT1-expressing HEK293 cells
Type: cell-based
Settings: for inhibition at 10 µM: Human URAT1-Expressing HEK293 cells, 50 μM [8-14C] urate, 5 min, read-out: % Inhibition of uric acid uptake
Protocol: An in vitro URAT1 assay is useful for identifying compounds with potential activity in lowering serum uric acid. A suitable assay involves transfection of cells (e.g. human embryonic kidney cells; “HEK”) with a vector encoding human URAT1, followed by determination of the ability of transfected cells to take up radiolabeled uric acid. The activity of compounds as URAT1 inhibitors is evaluated by their ability to block uric acid uptake by transfected cells.
Plasmid vector pCMV6-XL5 containing hURAT1 cDNA (Cat. No. SC125624) and the expression vector pCMV6-Neo (Cat. No. pCMVNEO) were obtained from OriGene Technologies, Inc. The full-length hURAT1 cDNA was obtained from the vector pCMV6-XL5 and subcloned into the expression vector pCMV6-Neo to create the hURAT1 expression plasmid pCMV6-hURAT1. The sequences were verified by automatic DNA sequencing.
Human embryonic kidney 293 (HEK) cells (ATTCC, Cat No. CRL-1573) were cultured in EMEM supplemented with 10% FBS and 2 mM L-glutamine and incubated at 37° C. and 5% CO2. For transfection experiments, cells were plated on 60 mm dishes in 1 ml media per dish. After an 18-24 hour incubation, cells were transfected with plasmid pCMV6-hURAT1 or the expression vector pCMV6-Neo, using the Lipofectin trasfection agent following the manufacturer's instructions (Invitrogen, Cat. No. 18292). After transfection cells were grown in EMEM media for 72 hours and then by adding 1 mg/ml Geneticin (GIBCO, Cat. No 10131) stable transfectants were selected. […]
hURAT1-HEK cells and mock-HEK cells were plated in poly-D-Lysine Cell culture 24 well plates (Becton Dickinson, Cat. No. 354414) at a concentration of 3×10^5 in EMEM medium and incubated overnight. […] The cell lysates were transferred into the scintillation vials containing 1 ml of scintillation fluid (Opti Phase SuperMIX, PerkinElmer, Cat No. 1200-439) and the radioactivity was counted in the Microbeta counter (1450, Wallac Jet, PerkinElmer). […] The radioactivity values obtained for the wells that contained DMSO were taken as 100% uptake of the cells. […]

Row | inhibition at 10 µM [%] | IC50 (uric acid uptake in hURAT1-HEK cells) [µM] | Structure (SMILES)
1 | 67.1 | – | COc1ccc(C(=O)C(=O)O)cc1OCc1c(C)cccc1C [Cpd. FG, 2-(3-(2,6-dimethylbenzyloxy)-4-methoxyphenyl)-2-oxoacetic acid]
2 | 87.4 | 1.28 | Cc1ccc(C(=O)C(=O)O)cc1OCc1c(C)cccc1C [Cpd. FF, 2-(3-(2,6-dimethylbenzyloxy)-4-methylphenyl)-2-oxoacetic acid]
